Assay results as given in patent US8802439B2, “Methods for enhancing infectivity of retroviruses” (priority 2009, dated 2014).

Key:
HIV-1-GFP = assay: Infectivity of HIV-1-GFP virions (RT-normalized), GFP fluorescence via FACS; format: cell-based
Experimental: (§1) 293T cells were transfected with HIV-1-GFP, SIV-GFP, bMLV-GFP, and nMLV-GFP proviral constructs, and in each case CMV-VSV-G, in the presence or absence of PiB or excess Pin1 as described above. Released virions were normalized via RT assay (EnzChek® Reverse Transcriptase Assay Kit), and infectivity on naïve TZMb1 cells was analyzed by GFP fluorescence via FACS (% cells infected).
Infection assays for retrovirus: Single-round infections: CD4^+ TZM-bl 100,000 cells/well/mL were seeded onto 24-well plates 24 hours prior to infection. These cells were infected in quadruplicate to 24-well plates. Infectivity was scored using an enzymatic galactosidase activity assay. Specifically, infected TZM-bl cells were washed and lysed, and 20 μl of lysate was transferred to a 96-well plate for detecting β-galactosidase activity. 100 μl of reaction buffer Galacton-Star substrate (Applied Biosystems, Bedford, Mass.), diluted 1:50, was added to 20 μl of lysate, and the light emission was measured over 1 second in a microplate luminometer after 30 minutes incubation. […] Replication was monitored by p24 ELISA. […] Viruses were used to infect in duplicate wells, incubated for 48 hours, washed with PBS, trypsinized, fixed in 1% formaldehyde and subsequently analyzed by fluorescence-activated cell sorting (FACS) for percentage cells infected.
We next asked whether Pin1 influences the infectivity of other retroviruses such as SIV, bMLV and nMLV. […] However, unlike previous experiments, virions were normalized via RT assay and infectivity in target cells was analyzed by GFP fluorescence via FACS. […] Note that the observed effect of Pin1 on HIV-1 infectivity using a different means of normalizing viruses (reverse transcriptase activity vs. p24 capsid) and a different means of quantifying infectivity (GFP), agrees with our previous findings above.
We further examined whether blocking Pin1 in producer cells can enhance the infectivity of retroviruses in different primate target cells. […] Infectivity was analyzed by GFP fluorescence via FACS. […]

SIV-GFP = assay: Infectivity of SIV-GFP virions (RT-normalized), GFP fluorescence via FACS; format: cell-based
Experimental: as §1
Infection assays for retrovirus: Single-round infections: CD4^+ TZM-bl 100,000 cells/well/mL were seeded onto 24-well plates 24 hours prior to infection. These cells were infected in quadruplicate to 24-well plates. Infectivity was scored using an enzymatic galactosidase activity assay. Specifically, infected TZM-bl cells were washed and lysed, and 20 μl of lysate was transferred to a 96-well plate for detecting β-galactosidase activity. 100 μl of reaction buffer Galacton-Star substrate (Applied Biosystems, Bedford, Mass.), diluted 1:50, was added to 20 μl of lysate, and the light emission was measured over 1 second in a microplate luminometer after 30 minutes incubation. For human PBMC infections, cells were exposed to 10 ng of wild-type virus for 6 hours, washed, and split into two flasks: one with 10 μM PiB added on day 0 and 3, and one without PiB. Replication was monitored by p24 ELISA. For measuring infectivity of GFP-virus, 50,000 TZMb1, sMAGI, OMK, Vero, BSC-1 and CV-1 cells/well/mL were seeded onto 6-well plates respectively 24 hours prior to infection. Viruses were used to infect in duplicate wells, incubated for 48 hours, washed with PBS, trypsinized, fixed in 1% formaldehyde and subsequently analyzed by fluorescence-activated cell sorting (FACS) for percentage cells infected.
[…]. In brief, 293T cells were transfected with a SIV-GFP (Mac293), a CMV driven plasmid encoding VSV-G envelope protein alone, or in the presence of 2.0 μM PiB, 10.0 μM PiB, 20.0 μM PiB, or 40.0 μM PiB. […] Infectivity was measured as GFP fluorescence via FACS. […]
We then examined effect of Pin blocking in non-human primate producer cells on viral infectivity. […] Infectivity was analyzed by GFP fluorescence via FACS. […]

CCOC(=O)CN1C(=O)c2ccc3c4c(ccc(c24)C1=O)C(=O)N(CC(=O)OCC)C3=O [PiB, diethyl-1,3,6,8-tetrahydro-1,3,6,8-tetraoxobenzo[lmn][3,8]phenanthroline-2,7-diacetate]
boost of HIV-1-GFP infectivity (HIV-1-GFP; produced in 293T with PiB, TZMb1 cells, % cells infected): 3 fold
infectivity of HIV-1-GFP in primate target cell panel (HIV-1-GFP; produced with PiB, TZM, OMK, sMAGI, Vero, CV-1 target cells): enhanced infectivity
boost of HIV-GFP infectivity in OMK cells (HIV-1-GFP; relative to control HIV-1 infectivity seen in sMAGI cells (no infection of OMK with control HIV-1)): 400%
infectivity of VSV-G pseudotyped macaque SIV-GFP (SIV-GFP; produced in 293T with 2.0, 10.0, 20.0 or 40.0 μM PiB): enhanced infectivity in a dose dependent manner
boost of SIV-GFP infectivity (SIV-GFP; produced in 293T with PiB, TZMb1 cells): 1.5 fold
infectivity of SIV produced in non-human primate cells (SIV-GFP; sMAGI, Vero, CV-1 (b135 also OMK) producer cells, human TZM/reporter cells): enhanced infectivity
